# Reference: patent US20230024302A1, “2,3,5-TRISUBSTITUTED PYRAZOLO[1,5-A]PYRIMIDINE COMPOUNDS” (Arcus Biosciences, Inc., priority 2019, published 2023)
# pIC50: −log10 of the molar value.
# Columns and labels:
# PI3Kγ = target: T1, PI3Kγ (Homo sapiens, UniProt P48736); assay: PI3Kγ cellular assay in THP-1 cells (AKT pS473 AlphaLISA); format: cell-based; settings: Table 1, rhMCP-1 stimulated AKT pS473, read-out: cellular potency (PI3Kγ IC50)
# T1 construct: host or cells: THP-1
# In short: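 Endogenous AKT S473 phosphorylation, detected by AlphaLISA in lysates, serves as the PI3Kγ activity read-out in stimulated, serum-starved THP-1 cells (1.8×10^5/well).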
# PI3Kγ (p120γ) = target: T2, PI3Kγ (p120γ) (Homo sapiens, UniProt P48736); assay: Inhibition of PI3K kinase activity (ADP Glo), PI3Kγ; settings: Table 1, p120γ, read-out: biochemical potency (PI3Kγ IC50)
# T2 construct: purchased Promega V1761
# T2 sequence (P48736 whole entry): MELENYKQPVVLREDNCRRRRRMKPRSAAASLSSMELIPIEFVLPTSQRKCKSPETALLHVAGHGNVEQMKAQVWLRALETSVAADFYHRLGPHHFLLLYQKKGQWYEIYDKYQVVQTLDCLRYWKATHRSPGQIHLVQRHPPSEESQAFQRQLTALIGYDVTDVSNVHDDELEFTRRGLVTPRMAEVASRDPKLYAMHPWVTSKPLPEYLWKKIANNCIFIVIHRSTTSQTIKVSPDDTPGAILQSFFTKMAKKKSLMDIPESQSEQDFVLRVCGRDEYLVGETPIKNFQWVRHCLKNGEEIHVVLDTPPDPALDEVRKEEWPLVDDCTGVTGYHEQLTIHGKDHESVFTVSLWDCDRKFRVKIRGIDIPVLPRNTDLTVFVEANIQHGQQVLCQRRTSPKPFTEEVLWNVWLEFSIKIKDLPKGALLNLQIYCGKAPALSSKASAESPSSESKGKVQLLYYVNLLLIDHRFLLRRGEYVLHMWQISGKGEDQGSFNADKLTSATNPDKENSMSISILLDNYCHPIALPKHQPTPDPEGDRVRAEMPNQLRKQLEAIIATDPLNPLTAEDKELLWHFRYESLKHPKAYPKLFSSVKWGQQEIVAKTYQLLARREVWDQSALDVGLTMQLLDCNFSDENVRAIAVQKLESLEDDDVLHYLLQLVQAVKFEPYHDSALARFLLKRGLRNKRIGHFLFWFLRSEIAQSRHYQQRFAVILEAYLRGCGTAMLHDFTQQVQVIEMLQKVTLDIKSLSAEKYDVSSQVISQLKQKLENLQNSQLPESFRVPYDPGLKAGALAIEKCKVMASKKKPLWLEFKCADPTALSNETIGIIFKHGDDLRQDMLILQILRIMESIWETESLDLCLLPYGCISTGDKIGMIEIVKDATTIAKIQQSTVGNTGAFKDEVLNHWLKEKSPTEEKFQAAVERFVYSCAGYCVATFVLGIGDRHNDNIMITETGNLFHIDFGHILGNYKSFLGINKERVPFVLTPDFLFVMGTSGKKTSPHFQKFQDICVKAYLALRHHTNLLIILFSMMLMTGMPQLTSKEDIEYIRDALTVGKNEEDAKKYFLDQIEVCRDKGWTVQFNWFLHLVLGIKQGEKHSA
# In short: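 IC50 values come from a 4-parameter nonlinear fit of ADP-Glo luminescence, which measures ADP produced as PIP2 is phosphorylated to PIP3. The p120γ enzyme (2× stock 8 nM) sat with compound 1 h at rt before substrate (2× stocks: 50 μM ATP, 0.1 mg/ml PIP2) was added. Phosphorylation then proceeded 60 min at rt.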
# T1 sequence (P48736 whole entry): as above
pIC50 (PI3Kγ),pIC50 (PI3Kγ (p120γ)),Structure (SMILES)
> 7.00,> 7.00,"CC[C@H](N1Cc2cc(-c3ccn4nc(N)c(C(=O)NC5(C)COC5)c4n3)cc(NS(C)(=O)=O)c2C1=O)C(F)(F)F [Example 125, 2-Amino-5-{7-methanesulfonamido-1-oxo-2-[(2S)-1,1,1-trifluorobutan-2-yl]-2,3-dihydro-1H-isoindol-5-yl}-N-(3-methyloxetan-3-yl)pyrazolo[1,5-a]pyrimidine-3-carboxamide]"
> 7.00,> 7.00,"CC[C@H](N1Cc2cc(-c3ccn4nc(N)c(C(=O)N[C@H]5C[C@H](C(C)(C)O)C5)c4n3)cc(NS(C)(=O)=O)c2C1=O)C(F)(F)F [Example 126, 2-Amino-5-{7-methanesulfonamido-1-oxo-2-[(2S)-1,1,1-trifluorobutan-2-yl]-2,3-dihydro-1H-isoindol-5-yl}-N-[trans-3-(2-hydroxypropan-2-yl)cyclobutyl]pyrazolo[1,5-a]pyrimidine-3-carboxamide]"
> 7.00,> 7.00,"CC[C@H](N1Cc2cc(-c3ccn4nc(N)c(C(=O)N[C@H]5CC[C@](C)(O)CC5)c4n3)cc(NS(C)(=O)=O)c2C1=O)C(F)(F)F [Example 127, 2-Amino-5-{7-methanesulfonamido-1-oxo-2-[(2S)-1,1,1-trifluorobutan-2-yl]-2,3-dihydro-1H-isoindol-5-yl}-N-[trans-4-hydroxy-4-methylcyclohexyl]pyrazolo[1,5-a]pyrimidine-3-carboxamide]"
> 7.00,> 7.00,"C[C@@H](C1CC1)N1Cc2cc(-c3ccn4nc(N)c(C(=O)NC5CC5)c4n3)cc(S(=O)(=O)C3CCC3)c2C1=O [Example 136, 2-Amino-5-[7-(cyclobutanesulfonyl)-2-[(1S)-1-cyclopropylethyl]-1-oxo-2,3-dihydro-1H-isoindol-5-yl]-N-cyclopropylpyrazolo[1,5-a]pyrimidine-3-carboxamide]"
> 7.00,> 7.00,"CNS(=O)(=O)c1cc(-c2ccn3nc(N)c(C(=O)Nc4cnn(C)c4)c3n2)cc2c1C(=O)N([C@@H](C)C1CC1)C2 [Example 140, 2-Amino-5-{2-[(1S)-1-cyclopropylethyl]-7-(methylsulfamoyl)-1-oxo-2,3-dihydro-1H-isoindol-5-yl}-N-(1-methyl-1H-pyrazol-4-yl)pyrazolo[1,5-a]pyrimidine-3-carboxamide]"
> 7.00,> 7.00,"CNS(=O)(=O)c1cc(-c2ccn3nc(N)c(C(=O)N[C@H]4C[C@H](O)C4)c3n2)cc2c1C(=O)N([C@@H](C)C1CC1)C2 [Example 141, 2-Amino-5-{2-[(1S)-1-cyclopropylethyl]-7-(methylsulfamoyl)-1-oxo-2,3-dihydro-1H-isoindol-5-yl}-N-[trans-3-hydroxycyclobutyl]pyrazolo[1,5-a]pyrimidine-3-carboxamide]"
> 7.00,> 7.00,"CNS(=O)(=O)c1cc(-c2ccn3nc(N)c(C(=O)NC4CC4)c3n2)cc2c1C(=O)N([C@@H](C)C1CC1)C2 [Example 142, 2-Amino-N-cyclopropyl-5-{2-[(1S)-1-cyclopropylethyl]-7-(methylsulfamoyl)-1-oxo-2,3-dihydro-1H-isoindol-5-yl}pyrazolo[1,5-a]pyrimidine-3-carboxamide]"
> 7.00,> 7.00,"C[C@@H](C1CC1)N1Cc2cc(-c3ccn4nc(N)c(C(=O)NC5CC5)c4n3)cc(O[C@H]3CCOC3)c2C1=O [Example 146, 2-Amino-N-cyclopropyl-5-{2-[(1S)-1-cyclopropylethyl]-1-oxo-7-[(3S)-oxolan-3-yloxy]-2,3-dihydro-1H-isoindol-5-yl}pyrazolo[1,5-a]pyrimidine-3-carboxamide]"
> 7.00,> 7.00,"C[C@@H](C1CC1)N1Cc2cc(-c3ccn4nc(N)c(C(=O)N[C@@H](CO)C5CC5)c4n3)cc(O[C@@H]3CCOC3)c2C1=O [Example 147, 2-Amino-N-[(1R)-1-cyclopropyl-2-hydroxyethyl]-5-{2-[(1S)-1-cyclopropylethyl]-1-oxo-7-[(3R)-oxolan-3-yloxy]-2,3-dihydro-1H-isoindol-5-yl}pyrazolo[1,5-a]pyrimidine-3-carboxamide]"

# Continued, compound first:
Structure (SMILES),pIC50 (PI3Kγ),pIC50 (PI3Kγ (p120γ))
"CS(=O)(=O)Nc1cc(-c2ccn3nc(N)c(C(=O)NC4CC4)c3n2)cc2c1C(=O)N([C@@H](C1CC1)C(F)(F)F)C2 [Example 128, 2-Amino-N-cyclopropyl-5-{2-[(1S)-1-cyclopropyl-2,2,2-trifluoroethyl]-7-methanesulfonamido-1-oxo-2,3-dihydro-1H-isoindol-5-yl}pyrazolo[1,5-a]pyrimidine-3-carboxamide]",> 7.00,> 7.00
"CS(=O)(=O)Nc1cc(-c2ccn3nc(N)c(C(=O)NC4CC4)c3n2)cc2c1C(=O)N([C@H](C1CC1)C(F)(F)F)C2 [Example 129, 2-Amino-N-cyclopropyl-5-{2-[(1R)-1-cyclopropyl-2,2,2-trifluoroethyl]-7-methanesulfonamido-1-oxo-2,3-dihydro-1H-isoindol-5-yl}pyrazolo[1,5-a]pyrimidine-3-carboxamide]",> 7.00,> 7.00
"C[C@@H](C1CC1)N1Cc2cc(-c3ccn4nc(N)c(C(=O)Nc5cnn(C)c5)c4n3)cc(S(C)(=O)=O)c2C1=O [Example 130, 2-Amino-5-{2-[(1S)-1-cyclopropylethyl]-7-methanesulfonyl-1-oxo-2,3-dihydro-1H-isoindol-5-yl}-N-(1-methyl-1H-pyrazol-4-yl)pyrazolo[1,5-a]pyrimidine-3-carboxamide]",> 7.00,> 7.00
"C[C@@H](C1CC1)N1Cc2cc(-c3ccn4nc(N)c(C(=O)N[C@H]5CC[C@@](C)(O)CC5)c4n3)cc(S(C)(=O)=O)c2C1=O [Example 131, 2-Amino-5-{2-[(1S)-1-cyclopropylethyl]-7-methanesulfonyl-1-oxo-2,3-dihydro-1H-isoindol-5-yl}-N-[cis-4-hydroxy-4-methylcyclohexyl]pyrazolo[1,5-a]pyrimidine-3-carboxamide]",> 7.00,> 7.00
"C[C@@H](C1CC1)N1Cc2cc(-c3ccn4nc(N)c(C(=O)NC5CC5)c4n3)cc(S(C)(=O)=O)c2C1=O [Example 132, 2-Amino-N-cyclopropyl-5-{2-[(1S)-1-cyclopropylethyl]-7-methanesulfonyl-1-oxo-2,3-dihydro-1H-isoindol-5-yl}pyrazolo[1,5-a]pyrimidine-3-carboxamide]",> 7.00,> 7.00
"CCS(=O)(=O)c1cc(-c2ccn3nc(N)c(C(=O)NC4CC4)c3n2)cc2c1C(=O)N([C@@H](C)C1CC1)C2 [Example 133, 2-Amino-N-cyclopropyl-5-{2-[(1S)-1-cyclopropylethyl]-7-(ethanesulfonyl)-1-oxo-2,3-dihydro-1H-isoindol-5-yl}pyrazolo[1,5-a]pyrimidine-3-carboxamide]",> 7.00,> 7.00
"C[C@@H](C1CC1)N1Cc2cc(-c3ccn4nc(N)c(C(=O)NC5CC5)c4n3)cc(S(=O)(=O)CC3CC3)c2C1=O [Example 135, 2-Amino-N-cyclopropyl-5-{2-[(1S)-1-cyclopropylethyl]-7-cyclopropylmethanesulfonyl-1-oxo-2,3-dihydro-1H-isoindol-5-yl}pyrazolo[1,5-a]pyrimidine-3-carboxamide]",> 7.00,> 7.00
"C[C@@H](C1CC1)N1Cc2cc(-c3ccn4nc(N)c(C(=O)NC5CC5)c4n3)cc(S(=O)(=O)C3CCCC3)c2C1=O [Example 137, 2-Amino-5-[7-(cyclopentanesulfonyl)-2-[(1S)-1-cyclopropylethyl]-1-oxo-2,3-dihydro-1H-isoindol-5-yl]-N-cyclopropylpyrazolo[1,5-a]pyrimidine-3-carboxamide]",> 7.00,> 7.00
"C[C@@H](C1CC1)N1Cc2cc(-c3ccn4nc(N)c(C(=O)NC5CC5)c4n3)cc(S(=O)(=O)C3CCCCC3)c2C1=O [Example 138, 2-Amino-5-[7-(cyclohexanesulfonyl)-2-[(1S)-1-cyclopropylethyl]-1-oxo-2,3-dihydro-1H-isoindol-5-yl]-N-cyclopropylpyrazolo[1,5-a]pyrimidine-3-carboxamide]",> 7.00,> 7.00
"CNS(=O)(=O)c1cc(-c2ccn3nc(N)c(C(=O)NC4CC4)c3n2)cc2c1C(=O)N([C@@H](C)C(F)(F)F)C2 [Example 139, 2-Amino-N-cyclopropyl-5-[7-(methylsulfamoyl)-1-oxo-2-[(2S)-1,1,1-trifluoropropan-2-yl]-2,3-dihydro-1H-isoindol-5-yl]pyrazolo[1,5-a]pyrimidine-3-carboxamide]",> 7.00,> 7.00
"CCNS(=O)(=O)c1cc(-c2ccn3nc(N)c(C(=O)NC4CC4)c3n2)cc2c1C(=O)N([C@@H](C)C1CC1)C2 [Example 143, 2-Amino-N-cyclopropyl-5-{2-[(1S)-1-cyclopropylethyl]-7-(ethylsulfamoyl)-1-oxo-2,3-dihydro-1H-isoindol-5-yl}pyrazolo[1,5-a]pyrimidine-3-carboxamide]",> 7.00,> 7.00
"C[C@@H](C1CC1)N1Cc2cc(-c3ccn4nc(N)c(C(=O)NC5CC5)c4n3)cc(S(=O)(=O)N(C)C)c2C1=O [Example 144, 2-Amino-N-cyclopropyl-5-{2-[(1S)-1-cyclopropylethyl]-7-(dimethylsulfamoyl)-1-oxo-2,3-dihydro-1H-isoindol-5-yl}pyrazolo[1,5-a]pyrimidine-3-carboxamide]",> 7.00,> 7.00
"C[C@@H](C1CC1)N1Cc2cc(-c3ccn4nc(N)c(C(=O)N[C@H]5CNC(=O)C5)c4n3)cc(O[C@@H]3CCOC3)c2C1=O [Example 145, 2-Amino-5-{2-[(1S)-1-cyclopropylethyl]-1-oxo-7-[(3R)-oxolan-3-yloxy]-2,3-dihydro-1H-isoindol-5-yl}-N-[(3R)-5-oxopyrrolidin-3-yl]pyrazolo[1,5-a]pyrimidine-3-carboxamide]",> 7.00,> 7.00
